Results taken from patent publication US20090111868A1 (priority 2004, published 2009).
pIC50: −log10 of the molar value. “Also recorded” adds a separate entry of the source. Read-outs that look alike come from different tables or passages of the source.

Experiments:
[1] = biological target: maxi-K potassium channels (Homo sapiens, UniProt Q12791); settings: cited from earlier work
rat stroke models = settings: cited from earlier work
[2] = not told; cited from earlier work
maxi-K channels = maxi-K channels (Homo sapiens, UniProt Q12791); settings: applied to the cytoplasmic side; cited from earlier work
BKCa channel [3] = biological target: T1, BKCa channel (Sus scrofa, UniProt O18866); settings: cited from earlier work
T1 construct: host or cells: porcine coronary artery cells (endogenous)

Cl^− channel = settings: cited from earlier work
hypertensive rat model = hypertensive rat model compared to controls; cited from earlier work
[4] = test system: porcine coronary myocytes; settings: 30 μM; through ryanodine receptor sensitive storage sites; cited from earlier work
BKCa channel (mSlo) = biological target: T2, BKCa channel (mSlo) (Mus musculus, UniProt Q08460); assay: Whole cell patch clamp of BKCa channel in stably transfected mSlo HEK293 cells; assay type: cell-based, murine
T2 construct: expressed in transfected cells
Procedure: (A-B) Representative current traces from whole cell patch with 5 mM EGTA in patch pipette. […] Voltage steps are shown at the right of each tracing; note different maximum voltage steps +200 mV (upper) vs. +120 mV (lower). […] Tail currents are in opposite direction due to final voltage step (+60 upper, −60 mV left). (C) G-V curves were constructed for indicated conditions utilizing tail analysis (Xia, et al., Multiple regulatory sites in large-conductance calcium-activated potassium channels. Nature, 2002. 418(6900):880-4). Solid lines were fitted with Boltzmann function (Origin 7.5). […] Representative of>30 similar experiments with rat and murine (pictured) s1o. (D-E) Stable mslo HEK293 cells were studied in whole cell configuration with pipette solution containing 5 mM EGTA (˜0 free Ca^2+).
(§1) Current was monitored with ramp protocol; holding potential −60 mV, with ramp from −80 mV to +150 mV over 500 ms. Extracellular application of NS-1619 (10 μM) increased current as previously described (Olesen, et al., Selective activation of Ca(2+)-dependent K+channels by novel benzimidazolone. Eur. J. Pharmacol., 1994. 251(1):53-9). […] Analysis performed using tail analysis with normalization as previously described (Xia, et al., Multiple regulatory sites in large-conductance calcium-activated potassium channels. Nature, 2002. 418(6900):880-4). (B) HEK cells co-expressing α and β1 subunits were studied in whole cell configuration with 5 mM EGTA (intra-pipette). […] (C) Human VSMC were studied in outside-out configuration, utilizing single channel recordings, recorded at +60 mV. […] Identification of the BKCa channel was determined by conductance and inhibition by iberiotoxin and TEA. […] Murine femoral arterial rings from were isolated and placed in a wire myograph. […] Figure representative of 4 similar experiments. Error bars are SEM; * p<0.001.

Ca^2+ channel = settings: cited from earlier work
BKCa channel [5] = biological target: BKCa channel (Mus musculus, UniProt Q08460); assay: Single channel recordings of BKCa channel, outside-out and inside-out patches (cell-free configuration); assay type: biochemical; settings: for inhibition of rottlerin channel activation: not shown
Procedure: Amplitude histograms are shown on the right. […] Ca^2+ was maintained at 0 (virtual; actual<20 nM) through dialysis using patch pipette. Since cellular compartments are excluded from patch and outside-out patch perfused locally with 0 Ca^2+, activation is Ca^2+-independent. […] Amplitude histograms are shown on the right.

[6] = test system: Murine femoral arterial rings; assay: Phenylephrine induced constriction of femoral arterial rings, wire myograph; assay type: cell-based
Procedure: as §1

PKCα = PKCα (Homo sapiens, UniProt P17252); settings: rottlerin 20 μM; 0.1 mM (or 0.01 mM) ATP; phosphatidylserine; histone H1 or myelin basic protein substrate; cited from earlier work
PKA = PKA (Homo sapiens, UniProt P17612); settings: read-out: IC50 for PKA; in vitro; cited from earlier work
[7] = biological target: T3, glutamate-aspartate transporter (GLAST) (Homo sapiens, UniProt P43003); settings: cited from earlier work
T3 construct: host or cells: astrocytes (from the cited title only)

BKCa channels [8] = biological target: T4, BKCa channels (Homo sapiens, UniProt Q12791); assay: Single channel recordings (outside-out) in human VSMC; assay type: cell-based; set-up: endogenous in cells; host or cells: human vascular smooth muscle cells (VSMC) grown in vitro; settings: recorded at +60 mV
Procedure: as §1

[9] = biological target: T5, BKCa channel mSlo and β1 subunit (Mus musculus, UniProt Q08460); assay: Whole cell recording in HEK cells co-expressing α and β1 subunits; assay type: cell-based, murine
T5 construct: expressed in transfected cells; host or cells: HEK293
Procedure: as §1

PKCδ [10] = biological target: T6, PKCδ (Homo sapiens, UniProt Q05655); settings: rottlerin 20 μM; 0.1 mM (or 0.01 mM) ATP; phosphatidylserine; histone H1 or myelin basic protein substrate; cited from earlier work
PKCδ [11] = biological target: T6, PKCδ; settings: more recent data; cited from earlier work
other PKC isozymes = settings: in vitro; cited from earlier work
PKCδ [12] = biological target: T6, PKCδ; settings: read-out: IC50 for PKCδ; in vitro; cited from earlier work
[13] = test system: mitochondria in intact cells; settings: cited from earlier work
[14] = test system: canine subarachnoid hemorrhage model; settings: rottlerin 5 μM injected into the cistema magna; cited from earlier work
casein kinase II = casein kinase II (Homo sapiens, UniProt P68400); settings: read-out: IC50 for casein kinase II; in vitro; cited from earlier work
3T3-L1 adipocytes = settings: read-out: IC50, inhibition of insulin-induced glucose uptake; cited from earlier work
guinea pigs = settings: purified rottlerin 10-20 mg/kg/day × 6 days; cited from earlier work
rats = settings: purified rottlerin 10-20 mg/kg/day × 6 days; cited from earlier work
BKCa channels [15] = biological target: T4, BKCa channels; settings: cited from earlier work
Ca^2+ sparks (RyR) = settings: cited from earlier work
[16] = biological target: BKCa channel α and β subunits (Homo sapiens, UniProt Q12791); settings: α and β subunits co-expressed; cited from earlier work
Chain of BKCa channel α and β subunits (Q12791 whole entry): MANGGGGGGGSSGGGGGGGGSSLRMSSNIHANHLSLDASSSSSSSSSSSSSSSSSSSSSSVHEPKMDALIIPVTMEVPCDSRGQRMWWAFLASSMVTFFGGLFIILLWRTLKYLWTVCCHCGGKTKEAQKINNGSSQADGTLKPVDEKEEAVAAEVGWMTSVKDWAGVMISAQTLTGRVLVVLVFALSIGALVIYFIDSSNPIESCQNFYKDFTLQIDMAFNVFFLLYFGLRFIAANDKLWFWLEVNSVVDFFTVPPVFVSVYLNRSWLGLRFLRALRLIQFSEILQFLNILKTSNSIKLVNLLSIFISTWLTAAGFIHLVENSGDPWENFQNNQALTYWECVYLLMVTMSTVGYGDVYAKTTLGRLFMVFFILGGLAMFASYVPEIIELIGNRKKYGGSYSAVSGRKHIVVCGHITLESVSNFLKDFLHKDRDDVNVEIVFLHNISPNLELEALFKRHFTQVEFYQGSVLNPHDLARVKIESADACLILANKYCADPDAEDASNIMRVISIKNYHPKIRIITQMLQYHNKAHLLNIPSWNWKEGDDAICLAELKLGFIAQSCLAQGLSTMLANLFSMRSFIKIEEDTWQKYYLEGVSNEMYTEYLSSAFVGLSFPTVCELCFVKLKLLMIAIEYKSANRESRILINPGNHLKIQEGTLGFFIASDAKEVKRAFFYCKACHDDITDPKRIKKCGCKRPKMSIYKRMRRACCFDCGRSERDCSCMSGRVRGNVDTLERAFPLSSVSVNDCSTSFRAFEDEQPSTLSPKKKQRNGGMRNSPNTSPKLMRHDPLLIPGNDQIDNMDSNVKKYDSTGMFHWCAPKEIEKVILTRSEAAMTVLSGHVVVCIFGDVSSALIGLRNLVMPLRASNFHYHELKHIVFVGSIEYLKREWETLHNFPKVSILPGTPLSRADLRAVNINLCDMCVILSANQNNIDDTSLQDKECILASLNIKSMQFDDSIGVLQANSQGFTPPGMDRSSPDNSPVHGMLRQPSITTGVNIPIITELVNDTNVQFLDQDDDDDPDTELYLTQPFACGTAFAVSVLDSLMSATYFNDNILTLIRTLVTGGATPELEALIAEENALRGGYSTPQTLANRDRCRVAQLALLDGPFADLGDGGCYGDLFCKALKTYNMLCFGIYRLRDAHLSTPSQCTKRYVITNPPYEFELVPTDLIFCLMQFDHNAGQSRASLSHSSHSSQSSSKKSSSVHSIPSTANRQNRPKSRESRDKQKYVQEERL
Chain of BKCa channel α and β subunits (Q16558 whole entry partner): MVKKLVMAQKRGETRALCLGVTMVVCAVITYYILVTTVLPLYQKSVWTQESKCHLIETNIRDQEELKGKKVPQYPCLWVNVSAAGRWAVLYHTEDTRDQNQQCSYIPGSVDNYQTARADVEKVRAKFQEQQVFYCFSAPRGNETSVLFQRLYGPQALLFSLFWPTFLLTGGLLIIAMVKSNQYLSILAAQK

T1 sequence (O18866 whole entry): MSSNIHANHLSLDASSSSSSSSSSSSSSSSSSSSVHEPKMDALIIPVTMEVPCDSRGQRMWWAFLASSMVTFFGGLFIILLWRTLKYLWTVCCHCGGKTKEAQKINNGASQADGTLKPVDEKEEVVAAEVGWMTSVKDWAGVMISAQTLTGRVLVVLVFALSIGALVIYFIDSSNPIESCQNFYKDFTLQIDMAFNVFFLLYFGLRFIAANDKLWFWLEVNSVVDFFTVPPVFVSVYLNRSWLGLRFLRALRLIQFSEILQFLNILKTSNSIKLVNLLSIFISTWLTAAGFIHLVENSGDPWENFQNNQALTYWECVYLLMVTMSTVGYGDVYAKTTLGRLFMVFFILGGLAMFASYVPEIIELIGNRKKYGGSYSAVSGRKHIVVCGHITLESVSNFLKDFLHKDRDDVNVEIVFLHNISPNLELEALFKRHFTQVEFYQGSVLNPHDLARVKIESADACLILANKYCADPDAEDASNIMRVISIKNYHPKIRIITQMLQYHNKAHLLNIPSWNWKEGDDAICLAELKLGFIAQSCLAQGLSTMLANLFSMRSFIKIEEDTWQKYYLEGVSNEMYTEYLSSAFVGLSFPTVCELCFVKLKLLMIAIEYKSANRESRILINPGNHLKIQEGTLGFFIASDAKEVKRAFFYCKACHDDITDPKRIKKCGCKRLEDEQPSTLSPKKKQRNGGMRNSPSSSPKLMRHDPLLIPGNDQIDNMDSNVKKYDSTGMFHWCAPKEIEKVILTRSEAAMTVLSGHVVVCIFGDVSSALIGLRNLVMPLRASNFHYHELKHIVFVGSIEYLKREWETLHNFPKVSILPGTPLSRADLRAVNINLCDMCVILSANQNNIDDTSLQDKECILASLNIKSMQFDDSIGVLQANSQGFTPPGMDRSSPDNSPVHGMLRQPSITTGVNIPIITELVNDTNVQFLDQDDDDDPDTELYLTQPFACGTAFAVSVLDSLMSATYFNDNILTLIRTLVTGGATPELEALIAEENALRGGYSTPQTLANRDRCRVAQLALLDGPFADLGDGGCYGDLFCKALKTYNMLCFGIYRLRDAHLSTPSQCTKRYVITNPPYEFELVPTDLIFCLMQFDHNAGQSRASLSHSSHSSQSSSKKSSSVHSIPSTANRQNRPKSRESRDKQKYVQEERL
T4 sequence (Q12791 whole entry): as the sequence (Q12791 whole entry) above
T2 sequence (Q08460 whole entry): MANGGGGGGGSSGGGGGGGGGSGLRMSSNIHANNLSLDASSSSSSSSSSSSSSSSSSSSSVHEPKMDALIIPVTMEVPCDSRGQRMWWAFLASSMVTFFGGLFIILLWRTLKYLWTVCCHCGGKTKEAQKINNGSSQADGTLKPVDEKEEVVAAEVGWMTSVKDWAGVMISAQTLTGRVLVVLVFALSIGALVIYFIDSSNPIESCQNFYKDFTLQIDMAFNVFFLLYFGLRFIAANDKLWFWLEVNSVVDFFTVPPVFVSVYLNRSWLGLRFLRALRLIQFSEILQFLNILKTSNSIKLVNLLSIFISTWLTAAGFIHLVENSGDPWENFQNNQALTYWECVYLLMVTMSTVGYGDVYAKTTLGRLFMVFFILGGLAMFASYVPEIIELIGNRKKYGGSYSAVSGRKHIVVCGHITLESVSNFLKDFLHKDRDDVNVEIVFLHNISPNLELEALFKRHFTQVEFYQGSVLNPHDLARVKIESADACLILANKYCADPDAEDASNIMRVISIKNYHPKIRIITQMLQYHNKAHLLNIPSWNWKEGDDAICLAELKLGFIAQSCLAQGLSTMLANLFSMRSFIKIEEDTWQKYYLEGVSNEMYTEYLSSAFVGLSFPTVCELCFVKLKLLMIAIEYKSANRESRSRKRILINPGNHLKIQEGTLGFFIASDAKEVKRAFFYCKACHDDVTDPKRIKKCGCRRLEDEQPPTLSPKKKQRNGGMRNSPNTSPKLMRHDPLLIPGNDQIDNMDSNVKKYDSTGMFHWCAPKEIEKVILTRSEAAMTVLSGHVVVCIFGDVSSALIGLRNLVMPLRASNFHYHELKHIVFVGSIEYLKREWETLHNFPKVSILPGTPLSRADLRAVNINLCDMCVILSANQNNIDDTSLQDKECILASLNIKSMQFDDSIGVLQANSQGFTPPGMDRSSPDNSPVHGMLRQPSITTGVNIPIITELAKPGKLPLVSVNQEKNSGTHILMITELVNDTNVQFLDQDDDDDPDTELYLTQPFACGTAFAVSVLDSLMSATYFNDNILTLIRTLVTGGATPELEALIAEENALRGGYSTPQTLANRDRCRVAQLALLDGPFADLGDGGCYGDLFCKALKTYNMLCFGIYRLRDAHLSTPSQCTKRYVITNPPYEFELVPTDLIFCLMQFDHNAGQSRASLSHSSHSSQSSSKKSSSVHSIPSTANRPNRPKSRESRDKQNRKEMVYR
Chain of BKCa channel (Mus musculus, UniProt Q08460) (Q08460 whole entry, the tested form may be a part): as the sequence (Q08460 whole entry) above
T6 sequence (Q05655 whole entry): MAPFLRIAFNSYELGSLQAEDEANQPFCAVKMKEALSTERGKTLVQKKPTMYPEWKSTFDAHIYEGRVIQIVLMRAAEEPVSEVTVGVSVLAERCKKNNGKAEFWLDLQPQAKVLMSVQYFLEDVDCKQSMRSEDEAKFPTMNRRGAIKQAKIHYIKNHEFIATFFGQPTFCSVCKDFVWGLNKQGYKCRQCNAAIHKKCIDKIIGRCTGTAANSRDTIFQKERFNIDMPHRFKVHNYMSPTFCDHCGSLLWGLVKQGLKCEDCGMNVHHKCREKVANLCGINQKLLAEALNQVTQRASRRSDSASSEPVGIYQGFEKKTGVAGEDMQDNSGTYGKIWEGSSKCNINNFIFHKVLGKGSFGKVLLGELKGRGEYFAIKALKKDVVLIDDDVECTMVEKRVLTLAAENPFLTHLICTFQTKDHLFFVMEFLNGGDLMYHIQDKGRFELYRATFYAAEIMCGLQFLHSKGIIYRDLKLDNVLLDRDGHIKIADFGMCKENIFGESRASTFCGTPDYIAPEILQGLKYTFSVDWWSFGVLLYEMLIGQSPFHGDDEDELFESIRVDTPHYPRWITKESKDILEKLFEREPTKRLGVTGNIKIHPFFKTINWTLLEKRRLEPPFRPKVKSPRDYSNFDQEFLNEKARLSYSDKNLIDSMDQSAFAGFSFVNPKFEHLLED
Chain of maxi-K potassium channels (Q12791 whole entry): as the sequence (Q12791 whole entry) above
Chain of maxi-K channels (Q12791 whole entry): as above
T5 sequence (Q08460 whole entry): as the sequence (Q08460 whole entry) above
T5 sequence (Q16558 whole entry partner): as the sequence (Q16558 whole entry partner) above

## COc1ccc(Cl)cc1[C@]1(F)C(=O)Nc2cc(C(F)(F)F)ccc21 [BMS-204352]
[1]; 50 nM intracellular Ca2+
  effect on current: almost no effect
[1]; higher intracellular Ca2+ concentrations
  effect on current: progressively greater increases in current
Rat stroke models
  brain infarct size: reduction in brain infarct size

## C=C[C@]1(C)C=C2CC[C@@]3(O)C(C)(C)CC[C@H](O)[C@]3(C)C2CC1 (stereo partly shown) [Maxikdiol]
[2]
  membrane permeability: limited
maxi-K channels
  concentration with significant effect on channel: 3 to 10 µM
  threshold concentration for channel activation: 1 µM

## O=C(Nc1cccc(C(F)(F)F)c1)Nc1cc(Cl)ccc1O [NS1608]
BKCa channel [3]; 50 μM
  effect at higher concentrations (bell shaped): inhibitory effect
BKCa channel [3]; porcine coronary artery cells
  concentration of maximum BKCa channel activation: 5 to 10 µM
  minimum effective concentration, BKCa channel activation: 0.5 µM

## O=c1[nH]c2cc(C(F)(F)F)ccc2n1-c1cc(C(F)(F)F)ccc1O [NS-1619]
Cl^− channel
  Cl- channel: inhibits
Hypertensive rat model
  efficacy in mediating vascular relaxation: diminished
[4]
  intracellular Ca2+ concentration: increase intracellular Ca^2+ concentration
BKCa channel (mSlo)
  peak K+ current: activated
Ca^2+ channel
  Ca2+ channel: inhibits

## CC[N+](CC)(CC)CC [TEA, reference compound]
BKCa channel [5]
  inhibition of rottlerin channel activation: can be inhibited
[6]; TEA
  inhibition of the rottlerin mediated effect on contraction: inhibited
BKCa channel (mSlo); TEA 5 mM
  inhibition of rottlerin induced BKCa activation: reversibly inhibited

## CC(=O)c1c(O)c(C)c(O)c(Cc2c(O)c3c(c(C(=O)/C=C/c4ccccc4)c2O)OC(C)(C)C=C3)c1O [rottlerin, 5,7-dihydroxy-2,2-dimethyl-6-(2,4,6-trihydroxy-3-methyl-5-acetylbenzyl)-8-cinnamoyl-1,2-chromene]
PKCα
  effect on PKCα activity: virtually no effect
PKA
  pIC50: 4.00 to 4.52
[7]
  capacity of GLAST glutamate transporter: decrease the capacity
BKCa channels [8]; rottlerin (0.5 μM) by local perfusion
  Po: significantly increased
BKCa channels [8]; rottlerin (0.5 βM) by local perfusion
  open dwell time: significantly increased
BKCa channel [5]; rottlerin 0.5 μM local perfusion to extracellular side, 0 Ca2+ (actual <20 nM)
  single channel activity, outside-out patch: activation of BKCa
BKCa channel [5]; rottlerin 0.5 μM local perfusion, 0 Ca2+
  single channel activity, inside-out patch: activation of BKCa
BKCa channel [5]; rottlerin 0.5 μM, amplitude histograms
  channel conductance: does not significantly change
[9]; HEK293 cells expressing both mSlo and β1 subunit
  channel activity: activated the channel
[9]; rottlerin 0.5 μM, whole cell, 5 mM EGTA intra-pipette
  I-V curve: significantly shifted the I-V curve to the left
PKCδ [10]
  effect on PKCδ activity: virtually no effect
PKCδ [11]
  blocking PKCδ activity in vitro: ineffective
Other PKC isozymes
  pIC50: 4.00 to 4.52
PKCδ [12]
  pIC50: 5.22 to 5.52
[13]; 10 μM
  uncoupling of mitochondria: can uncouple mitochondria
[13]; PKC independent
  ATP levels: reduce ATP levels
[6]; rottlerin 1 μM
  effect on phenylephrine mediated contraction: no significant effect
[6]; rottlerin 4 μM
  reduction of phenylephrine mediated contraction: > 50%
[6]; rottlerin (0.5 μM), p<0.001, representative of 4 experiments
  PE induced constriction of the vessel: significantly inhibited
[14]
  cerebral vasospasm: inhibited the initial phase of cerebral vasospasm
  toxic effects: No toxic effects
Casein kinase II
  pIC50: 4.00 to 4.52
BKCa channel (mSlo); 0.5 μM via local perfusion after 25 min intracellular dialysis
  BKCa channel activity on extracellular exposure: significantly increased
BKCa channel (mSlo); 20 μM rottlerin in patch pipette, 5 mM EGTA, over 25 min
  BKCa channel activity/current on intracellular dialysis: minimal effect; also recorded: only a relatively small effect
BKCa channel (mSlo); after exposure to rottlerin (FIG. 4: 0.5 μM extracellular, 5 mM EGTA in pipette)
  tail currents (slowing of deactivation): significantly prolonged; also recorded: markedly prolonged
BKCa channel (mSlo); extracellular, pipette 5 mM EGTA (~0 free Ca2+)
  BKCa channel activation on local perfusion: activated channel
BKCa channel (mSlo); rottlerin 0.5 μM added after NS-1619 (10 μM), 0 Ca2+
  current after NS-1619 administration: incrementally increased current
BKCa channel (mSlo); rottlerin ≦100 nM, non-phosphorylated conditions, non-Ca2+ dependent, reversible
  BKCa channel activity: dramatically increased
3T3-L1 adipocytes
  pIC50: 5.00
Guinea pigs
  fertility rate: reduce the fertility rate
rats
  fertility rate: reduce the fertility rate

## CC1(C)C[C@@H](O)[C@]2(C)CC[C@]3(C)C(=CC[C@@H]4[C@@]5(C)CC[C@H](O[C@@H]6O[C@H](C(=O)O)[C@@H](O)[C@H](O)[C@H]6O[C@@H]6O[C@H](CO)[C@H](O)[C@H](O)[C@H]6O)[C@](C)(CO)[C@@H]5CC[C@]43C)[C@@H]2C1 [soyasaponin III]
BKCa channels [15]
  BKCa channel activation: activate BKCa channels

## C[C@@H]1O[C@@H](O[C@H]2[C@H](O[C@H]3[C@H](O[C@H]4CC[C@@]5(C)[C@@H](CC[C@]6(C)[C@@H]5CC=C5[C@@H]7CC(C)(C)C[C@@H](O)[C@]7(C)CC[C@]56C)[C@@]4(C)CO)O[C@H](C(=O)O)[C@@H](O)[C@@H]3O)O[C@H](CO)[C@H](O)[C@@H]2O)[C@H](O)[C@H](O)[C@H]1O [soyasaponin I]
BKCa channels [15]
  BKCa channel activation: activate BKCa channels

## Ryanodine
Ca^2+ sparks (RyR)
  reduction of dilation to forskolin: 80%

## dehydrosoyasaponin-I [DHS-I]
[2]
  membrane permeability: poor
[16]
  channel activity: increases channel activity
BKCa channels [15]
  BKCa channel activation: activate BKCa channels

## iberiotoxin: inhibitor used to identify the BKCa channel (QFTDVDCSVSKECWSVCKDLFGVDRGKCMGKKCRCYQ; UniProt P24663 1-37, looked up) [reference compound]
BKCa channel [5]
  inhibition of rottlerin channel activation: can be inhibited
